Experimental data reported in the NIST ThermoML archive (doi:10.1021/je0501843).
Several values for one entry are separate records, joined by “and”; a condition that tells them apart may be missing. Equal entries are not always repeated.

Experiment: molar heat capacity at constant volume
Conditions: Fluid (supercritical or subcritical phases), Vacuum adiabatic calorimetry

FC(F)C(F)(F)F [pentafluoroethane]
Conditions	molar heat capacity at constant volume
350 K, Mass density=585.7 kg/m3	121.87 J/K/mol and 115.26 J/K/mol
350 K, Mass density=688.6 kg/m3	121.82 J/K/mol
350 K, Mass density=774 kg/m3	115.87 J/K/mol
350 K, Mass density=882.7 kg/m3	111.2 J/K/mol
350 K, Mass density=975 kg/m3	106.81 J/K/mol and 108.22 J/K/mol
350 K, Mass density=1076.5 kg/m3	105.51 J/K/mol and 105.75 J/K/mol
351 K, Mass density=403.4 kg/m3	114.03 J/K/mol
351 K, Mass density=503 kg/m3	115.42 J/K/mol
351 K, Mass density=585.7 kg/m3	123.23 J/K/mol and 114 J/K/mol
351 K, Mass density=688.6 kg/m3	119.91 J/K/mol
351 K, Mass density=773.9 kg/m3	114.06 J/K/mol
351 K, Mass density=882.7 kg/m3	110.25 J/K/mol
351 K, Mass density=974.9 kg/m3	106.01 J/K/mol and 107.36 J/K/mol
351 K, Mass density=1076.4 kg/m3	105.26 J/K/mol and 105.57 J/K/mol
352 K, Mass density=403.5 kg/m3	110.23 J/K/mol
352 K, Mass density=503 kg/m3	114.08 J/K/mol
352 K, Mass density=585.7 kg/m3	123.57 J/K/mol and 113.02 J/K/mol
352 K, Mass density=688.6 kg/m3	117.02 J/K/mol
352 K, Mass density=773.9 kg/m3	113.16 J/K/mol
352 K, Mass density=882.6 kg/m3	108.96 J/K/mol
352 K, Mass density=974.8 kg/m3	106.96 J/K/mol and 107.86 J/K/mol
352 K, Mass density=1076.3 kg/m3	105.75 J/K/mol and 105.23 J/K/mol
353 K, Mass density=403.5 kg/m3	109.29 J/K/mol
353 K, Mass density=503 kg/m3	114.32 J/K/mol
353 K, Mass density=585.7 kg/m3	120.99 J/K/mol and 113.07 J/K/mol
353 K, Mass density=688.5 kg/m3	116.8 J/K/mol
353 K, Mass density=773.8 kg/m3	113.56 J/K/mol
353 K, Mass density=882.5 kg/m3	110.9 J/K/mol
353 K, Mass density=974.7 kg/m3	107.31 J/K/mol and 108.33 J/K/mol
353 K, Mass density=1076.2 kg/m3	106.21 J/K/mol and 105.67 J/K/mol
354 K, Mass density=403.6 kg/m3	113.22 J/K/mol
354 K, Mass density=503 kg/m3	115.36 J/K/mol
354 K, Mass density=585.7 kg/m3	119.21 J/K/mol and 111.24 J/K/mol
354 K, Mass density=688.5 kg/m3	117.18 J/K/mol
354 K, Mass density=773.8 kg/m3	113.7 J/K/mol
354 K, Mass density=882.5 kg/m3	112.32 J/K/mol
354 K, Mass density=974.6 kg/m3	107.07 J/K/mol and 107.84 J/K/mol
354 K, Mass density=1076.1 kg/m3	105.5 J/K/mol and 106.64 J/K/mol
355 K, Mass density=403.6 kg/m3	113.06 J/K/mol
355 K, Mass density=503 kg/m3	114.26 J/K/mol
355 K, Mass density=585.7 kg/m3	121.17 J/K/mol and 110.25 J/K/mol
355 K, Mass density=688.5 kg/m3	116.52 J/K/mol
355 K, Mass density=773.7 kg/m3	113.14 J/K/mol
355 K, Mass density=882.4 kg/m3	110.04 J/K/mol
355 K, Mass density=974.6 kg/m3	106.63 J/K/mol and 107.29 J/K/mol
355 K, Mass density=1076 kg/m3	104.47 J/K/mol and 105.31 J/K/mol
356 K, Mass density=403.6 kg/m3	111.13 J/K/mol
356 K, Mass density=503 kg/m3	114 J/K/mol
356 K, Mass density=585.7 kg/m3	121.39 J/K/mol and 110.52 J/K/mol
356 K, Mass density=688.4 kg/m3	115.44 J/K/mol
356 K, Mass density=773.7 kg/m3	112.56 J/K/mol
356 K, Mass density=882.4 kg/m3	109.83 J/K/mol
356 K, Mass density=974.5 kg/m3	106.76 J/K/mol and 106.98 J/K/mol
356 K, Mass density=1075.9 kg/m3	105.59 J/K/mol and 105.04 J/K/mol
357 K, Mass density=403.6 kg/m3	111.14 J/K/mol
357 K, Mass density=503 kg/m3	114.3 J/K/mol
357 K, Mass density=585.6 kg/m3	111.96 J/K/mol
357 K, Mass density=585.7 kg/m3	119.54 J/K/mol
357 K, Mass density=688.4 kg/m3	115.72 J/K/mol
357 K, Mass density=773.7 kg/m3	114.08 J/K/mol
357 K, Mass density=882.3 kg/m3	111.13 J/K/mol
357 K, Mass density=974.4 kg/m3	107.52 J/K/mol and 108.27 J/K/mol
357 K, Mass density=1075.8 kg/m3	106.52 J/K/mol and 106.05 J/K/mol
358 K, Mass density=403.6 kg/m3	111.56 J/K/mol
358 K, Mass density=503 kg/m3	112.47 J/K/mol
358 K, Mass density=585.6 kg/m3	118.73 J/K/mol and 110.52 J/K/mol
358 K, Mass density=688.4 kg/m3	115.42 J/K/mol
358 K, Mass density=773.6 kg/m3	113.91 J/K/mol
358 K, Mass density=882.2 kg/m3	110.62 J/K/mol
358 K, Mass density=974.3 kg/m3	107.37 J/K/mol and 108.93 J/K/mol
358 K, Mass density=1075.7 kg/m3	105.71 J/K/mol and 106.8 J/K/mol
359 K, Mass density=403.6 kg/m3	112.17 J/K/mol
359 K, Mass density=503 kg/m3	112.71 J/K/mol
359 K, Mass density=585.6 kg/m3	120.73 J/K/mol and 110.01 J/K/mol
359 K, Mass density=688.3 kg/m3	114.6 J/K/mol
359 K, Mass density=773.6 kg/m3	112.66 J/K/mol
359 K, Mass density=882.2 kg/m3	109.41 J/K/mol
359 K, Mass density=974.3 kg/m3	106.84 J/K/mol and 107.68 J/K/mol
359 K, Mass density=1075.6 kg/m3	105.11 J/K/mol and 106.04 J/K/mol
360 K, Mass density=403.6 kg/m3	111.06 J/K/mol
360 K, Mass density=503 kg/m3	113.85 J/K/mol
360 K, Mass density=585.6 kg/m3	119.64 J/K/mol and 111.46 J/K/mol
360 K, Mass density=688.3 kg/m3	115.44 J/K/mol
360 K, Mass density=773.5 kg/m3	113.01 J/K/mol
360 K, Mass density=882.1 kg/m3	109.1 J/K/mol
360 K, Mass density=974.2 kg/m3	106.66 J/K/mol and 107.71 J/K/mol
360 K, Mass density=1075.5 kg/m3	106.19 J/K/mol and 105.87 J/K/mol
361 K, Mass density=403.6 kg/m3	110.42 J/K/mol
361 K, Mass density=503 kg/m3	112.26 J/K/mol
361 K, Mass density=585.6 kg/m3	116.41 J/K/mol and 111.57 J/K/mol
361 K, Mass density=688.3 kg/m3	115.6 J/K/mol
361 K, Mass density=773.5 kg/m3	113.86 J/K/mol
361 K, Mass density=882.1 kg/m3	110.89 J/K/mol
361 K, Mass density=974.1 kg/m3	107.11 J/K/mol and 108.37 J/K/mol
361 K, Mass density=1075.4 kg/m3	106.59 J/K/mol
362 K, Mass density=403.6 kg/m3	109.78 J/K/mol
362 K, Mass density=503 kg/m3	111.4 J/K/mol
362 K, Mass density=585.6 kg/m3	117.98 J/K/mol and 110.73 J/K/mol
362 K, Mass density=688.2 kg/m3	115.95 J/K/mol
362 K, Mass density=773.4 kg/m3	112.71 J/K/mol
362 K, Mass density=882 kg/m3	110.8 J/K/mol
362 K, Mass density=974 kg/m3	107.3 J/K/mol and 108.22 J/K/mol
362 K, Mass density=1075.3 kg/m3	106.09 J/K/mol
363 K, Mass density=403.6 kg/m3	109.94 J/K/mol
363 K, Mass density=503 kg/m3	114.16 J/K/mol
363 K, Mass density=585.5 kg/m3	120.74 J/K/mol and 110.36 J/K/mol
363 K, Mass density=688.2 kg/m3	116.44 J/K/mol
363 K, Mass density=773.4 kg/m3	110.53 J/K/mol
363 K, Mass density=881.9 kg/m3	110.61 J/K/mol
363 K, Mass density=974 kg/m3	106.41 J/K/mol and 108.02 J/K/mol
363 K, Mass density=1075.2 kg/m3	106.37 J/K/mol
364 K, Mass density=403.6 kg/m3	111.1 J/K/mol
364 K, Mass density=503 kg/m3	113.42 J/K/mol
364 K, Mass density=585.5 kg/m3	119.4 J/K/mol and 109.88 J/K/mol
364 K, Mass density=688.2 kg/m3	114.69 J/K/mol
364 K, Mass density=773.3 kg/m3	110.71 J/K/mol
364 K, Mass density=881.9 kg/m3	110.79 J/K/mol
364 K, Mass density=973.9 kg/m3	106.7 J/K/mol and 108.1 J/K/mol
364 K, Mass density=1075.1 kg/m3	106.31 J/K/mol
365 K, Mass density=403.6 kg/m3	108.67 J/K/mol
365 K, Mass density=503 kg/m3	111.49 J/K/mol
365 K, Mass density=585.5 kg/m3	117.96 J/K/mol and 110.02 J/K/mol
365 K, Mass density=688.1 kg/m3	115.26 J/K/mol
